Inconclusive results are not listed.
System: Clone20 osteoblast Shn3 3'UTR firefly luciferase, 24 h
Experiment: Schnurri-3 3'UTR-luciferase signal suppressors – cell-based, Clone20 osteoblasts, luminescence, dry powder, set 2, dose response (AID 743417)

`Cc1ccc(-n2ncc3c2CCCC3NC(=O)c2ocnc2C)cc1C` (centres undefined) was tested. Which AC50 did it give?
Its AC50 is 1.29 µM.

Which AC50 does the source give for `CCCCn1c(CN2CCN(c3ccccc3)CC2)nc2c1c(=O)n(C)c(=O)n2C` here?
Its AC50 is 2.05 µM.

`CN(C)CCCNc1c2ccccc2nc2ccccc12` was tested. Which AC50 did it give?
The AC50 was 3.22 µM.

Which AC50 does the source give for `C[C@@H]1C[C@@H]([C@H](O)CC2CC(=O)NC(=O)C2)C(=O)[C@@H](C)C1` here?
Its AC50 is 0.345 µM.

Which AC50 does the source give for `CC(C)CC(N)c1csc(NC(=O)c2cc(C(C)(C)C)nn2Cc2ccccc2)n1` (centres undefined) here?
The AC50 was 4.85 µM.

How did the AC50 turn out when `COc1ccc(C(=O)/C=C/C(=O)N(CC(=O)NCCC(C)C)Cc2cccs2)c(O)c1` was run?
The AC50 was 3.49 µM.

With `COc1ccc(Cn2c(SCc3ccccc3C)nc3cc(OC)c(OC)cc3c2=N)cc1` as the molecule, how does the AC50 read?
The AC50 was 5.46 µM.

Which AC50 does the source give for `COc1ccc(-c2noc(CCC(=O)NCCCN3CCC(Cc4ccccc4)CC3)n2)cc1` here?
The AC50 was 4.03 µM.

With `CC(C)(CNC(=O)c1ccc(Cl)c(S(=O)(=O)N2CCc3ccccc3C2)c1)N1CCOCC1` as the molecule, how does the AC50 read?
The AC50 was 10.5 µM.

`CCC(=O)c1ccc(OCC(O)Cn2c(C)nc3ccccc32)cc1` (centres undefined) was tested. Which AC50 did it give?
The AC50 was 2.28 µM.

For `CCC1CCCCN1C(=O)c1cc(COc2ccc3ncccc3c2)on1` (centres undefined), which AC50 is on record?
Its AC50 is 0.46 µM.

How did the AC50 turn out when `Cc1ccc(Nc2nc(NCc3ccco3)c3ccccc3n2)cc1` was run?
Its AC50 is 9.84 µM.

For `Cn1c(=O)c2[nH]c(CCCCCCCCc3nc4ccccc4[nH]3)nc2n(C)c1=O`, which AC50 is on record?
Its AC50 is 3.98 µM.

`CCC(=O)c1cn(CC(=O)Nc2ccccc2Cl)c2ccccc12` was tested. Which AC50 did it give?
Its AC50 is less than 0.26 µM.

With `CN(C)c1ccc(C=Cc2ccnc3c(O)cccc23)cc1` as the molecule, how does the AC50 read?
Its AC50 is 1.43 µM.

With `c1ccc(-c2cc(CSc3nc4ccccc4[nH]3)on2)cc1` as the molecule, how does the AC50 read?
The AC50 was 3.76 µM.

`O=C(/C=C/c1ccc(O)c(O)c1)OCCc1ccccc1` was tested. Which AC50 did it give?
Its AC50 is 0.877 µM.

For `O=C1NC2C(=CC(O)C(O)C2O)c2cc3c(cc21)OCO3` (centres undefined), which AC50 is on record?
Its AC50 is 2.22 µM.

For `O=C(Nc1ccccc1Cl)/C(Cl)=C(\Cl)S(=O)c1ccccc1` (centres undefined), which AC50 is on record?
Its AC50 is 0.438 µM.

With `CCC(=O)NC(C)c1cc(Cl)c2cccnc2c1O` (centres undefined) as the molecule, how does the AC50 read?
The AC50 was 5.19 µM.

With `c1ccc(CN2CCN(c3ncnc4c3[nH]c3ccccc34)CC2)cc1` as the molecule, how does the AC50 read?
Its AC50 is 2.06 µM.

`Cc1ccc(S(=O)(=O)CC2CSc3nc4ccccc4n32)cc1` (centres undefined) was tested. Which AC50 did it give?
The AC50 was 0.347 µM.

`CC(C)n1c(/C=C/[C@@H](O)C[C@@H](O)CC(=O)O)c(-c2ccc(F)cc2)c2ccccc21` was tested. Which AC50 did it give?
Its AC50 is 2.4 µM.

With `CCOC(=O)/C=C/C(=O)OCC(=O)NC(c1ccccc1)c1ccccc1` as the molecule, how does the AC50 read?
Its AC50 is 5.14 µM.

For `CCc1ccc(OCC(=O)NC(NC(=S)Nc2ccc(Cl)cc2)C(Cl)(Cl)Cl)cc1` (centres undefined), which AC50 is on record?
The AC50 was 4.96 µM.

`Cc1cc(C)c(CN2CCN(C(=O)Cn3cnc4c(NCc5ccccc5)ncnc43)CC2)c(C)c1` was tested. Which AC50 did it give?
Its AC50 is 0.417 µM.

`COc1ccc(C(=O)NNC(=O)c2cccc(S(=O)(=O)N3CCOCC3)c2)cc1` was tested. Which AC50 did it give?
The AC50 was 23.2 µM.

How did the AC50 turn out when `CN(c1ccccc1)c1ccc(/C=C/[N+](=O)[O-])cc1` was run?
Its AC50 is 5.79 µM.

With `c1ccc(CNc2c(-c3cccc(SC4CCCCC4)c3)nc3ccccn23)cc1` as the molecule, how does the AC50 read?
The AC50 was 3.46 µM.

Which AC50 does the source give for `COc1cc2c(OC(C)=O)c3c(c(-c4ccc5c(c4)OCO5)c2cc1OC)C(=O)OC3` here?
The AC50 was 1.8 µM.

For `Cc1cc(C)c(O)c(-c2cc(C(=O)Nc3ccc(S(=O)(=O)N4CCOCC4)cc3)[nH]n2)c1`, which AC50 is on record?
The AC50 was 5.48 µM.

With `COc1ccc(CNCC(O)COc2cccc3c2OC(C)(C)C3)cc1` (centres undefined) as the molecule, how does the AC50 read?
The AC50 was 1.68 µM.

Which AC50 does the source give for `CCN(C(=O)c1ccc(C(C)(C)C)cc1)c1nnc(Cn2nnc3ccccc32)s1` here?
The AC50 was 1.35 µM.

With `CC(=O)N1c2ccc(S(=O)(=O)N3CCC(C(=O)N4CCN(c5cccc(C(F)(F)F)c5)CC4)CC3)cc2CC1C` (centres undefined) as the molecule, how does the AC50 read?
The AC50 was 1.28 µM.

How did the AC50 turn out when `CCCCCOC(=O)c1[nH]c2c(c1C)C(=O)CC(c1ccco1)C2` (centres undefined) was run?
Its AC50 is 1.49 µM.

How did the AC50 turn out when `Cc1ccc(-c2csc(N3CCC(NS(=O)(=O)c4ccc5c(c4)OCCO5)CC3)n2)cc1` was run?
The AC50 was 2.15 µM.

With `Cc1cc(C(=O)COC(=O)c2ccccc2O)c(C)n1Cc1cccs1` as the molecule, how does the AC50 read?
Its AC50 is 8.99 µM.

How did the AC50 turn out when `O=C(c1cc(COc2c(F)cccc2F)on1)N1CCC(c2ccncc2)CC1` was run?
The AC50 was 1.6 µM.

Which AC50 does the source give for `C[n+]1c2n(c3ccccc31)N=C(c1cc(C(C)(C)C)c(O)c(C(C)(C)C)c1)CS2` here?
Its AC50 is 5.92 µM.

How did the AC50 turn out when `COc1ccc(NS(=O)(=O)c2cccc(NC(=O)c3ccc(S(=O)(=O)N4CCCCCC4)cc3)c2)cc1` was run?
Its AC50 is 0.829 µM.

How did the AC50 turn out when `C[C@H](NC(=O)c1nc[nH]c1C(=O)NCc1ccc(CNC(=O)OC(C)(C)C)cc1)c1ccccc1` was run?
The AC50 was 11.7 µM.

For `O=[N+]([O-])c1ccc(S(=O)(=O)c2ccccc2)nc1`, which AC50 is on record?
Its AC50 is 1.74 µM.

With `CCOc1cc(CNCCCN2CCOCC2)cc(Br)c1OCc1ccccc1Cl` as the molecule, how does the AC50 read?
The AC50 was 9.31 µM.

Which AC50 does the source give for `Cc1ccc(Nc2c(-c3ccccn3)nc3cc(C)ccn23)cc1` here?
The AC50 was 1.36 µM.

For `Cc1cc(C(=O)NC2CCCc3c2cnn3-c2cccc(C)c2C)n(C)n1` (centres undefined), which AC50 is on record?
The AC50 was less than 0.26 µM.

`CC(C)NCC(O)COc1cccc2ccccc12` (centres undefined) was tested. Which AC50 did it give?
The AC50 was 23.6 µM.

How did the AC50 turn out when `Cn1c(/C=C/c2ccc([N+](=O)[O-])o2)nc2ccccc2c1=O` was run?
The AC50 was 2.37 µM.

With `CCOc1ccc(Cn2nnc(C(=O)Nc3cc(OC)cc(OC)c3)c2N)cc1` as the molecule, how does the AC50 read?
Its AC50 is 5.3 µM.

For `O=S(=O)(c1ccccc1C(F)(F)F)N1CCN(c2ncnc3sccc23)CC1`, which AC50 is on record?
Its AC50 is 3.44 µM.

With `O=C(Nc1ccc(Oc2ccccc2)cc1)C1CCN(c2c3c(nc4ncnn24)CCC3)CC1` as the molecule, how does the AC50 read?
The AC50 was 5.64 µM.

For `Cc1ccc(S(=O)(=O)CCC(=O)OCC(=O)Nc2cc(S(=O)(=O)N3CCOCC3)ccc2C)cc1`, which AC50 is on record?
Its AC50 is 17.8 µM.

Which AC50 does the source give for `S=C(NCCCCN(Cc1ccc(Cl)cc1)c1ccc(Br)cn1)NCCCc1cnc[nH]1` here?
The AC50 was 7.24 µM.

`Cc1cccc(/C=C(\c2nc3ccccc3[nH]2)S(=O)(=O)c2ccccc2)c1` was tested. Which AC50 did it give?
The AC50 was 4.5 µM.

`CCOC(=O)c1c(CSCc2ccccc2)oc2ccc(O)c(CN(C)C)c12` was tested. Which AC50 did it give?
The AC50 was 9.79 µM.

`Cc1ccc(NC(=O)c2nc(S(=O)(=O)Cc3ccccc3C)ncc2Cl)cc1C` was tested. Which AC50 did it give?
Its AC50 is 0.486 µM.

Which AC50 does the source give for `Cc1cc(F)ccc1S(=O)(=O)Nc1ccccc1C(=O)Nc1ccccc1-c1nc2ccccc2[nH]1` here?
Its AC50 is 12.1 µM.

How did the AC50 turn out when `CC[C@H](C)[C@H]1O[C@]2(CC[C@@H]1C)C[C@@H]1C[C@@H](CC=C(C)[C@@H](O[C@H]3C[C@H](OC)[C@@H](O[C@H]4C[C@H](OC)[C@@H](O)[C@H](C)O4)[C@H](C)O3)[C@@H](C)C=CC=C3CO[C@@H]4[C@H](O)C(C)=C[C@@H](C(=O)O1)[C@]34O)O2` was run?
Its AC50 is 6.32 µM.

With `Oc1c(C(Nc2cccc(C(F)(F)F)c2)c2ccncc2)ccc2cccnc12` (centres undefined) as the molecule, how does the AC50 read?
The AC50 was 5.8 µM.

How did the AC50 turn out when `CCC(C)(O)C(=O)OC1C(=O)OC2CC3C(C)=CC(=O)C(O)C3(C)C3C4(O)OCC23C1C(C)C4O` (centres undefined) was run?
The AC50 was 0.866 µM.

For `CCC(=O)c1cn(CC(=O)Nc2cccc(C)c2C)c2ccccc12`, which AC50 is on record?
Its AC50 is 1.52 µM.

Which AC50 does the source give for `C#CC(=O)N(c1ccc(OC)cc1OC)C(C(=O)NC1CCCC1)c1cccs1` (centres undefined) here?
Its AC50 is 7.12 µM.

How did the AC50 turn out when `CC1CC(C)(C)CC2(C1)NC(=O)N(CC(=O)N1CCN(Cc3ccc(C#N)cc3)CC1)C2=O` (centres undefined) was run?
Its AC50 is 1.47 µM.

With `CC(C)(C)c1ccc(CN2C3=NCCCN3c3ccccc32)cc1` as the molecule, how does the AC50 read?
Its AC50 is 0.836 µM.

For `COc1cc(/C=C/C(=O)c2ccc3c(c2)OCCO3)cc(Br)c1OCC(=O)N(C)C`, which AC50 is on record?
Its AC50 is 2.63 µM.

How did the AC50 turn out when `Oc1cccc(C(Nc2nccs2)c2ccc3cccnc3c2O)c1` (centres undefined) was run?
Its AC50 is 1.67 µM.

With `COc1ccc(C(NC(=O)c2cccnc2)c2cc(Cl)c3cccnc3c2O)cc1OC` (centres undefined) as the molecule, how does the AC50 read?
Its AC50 is 1.88 µM.

`O=S(=O)(c1ccc(Cl)cc1)N1CCN(c2ncnc3sccc23)CC1` was tested. Which AC50 did it give?
Its AC50 is 3.04 µM.

`COc1cc(NC(=O)c2cc3c(Cl)nc4ccccc4c3s2)cc(OC)c1OC` was tested. Which AC50 did it give?
The AC50 was 24.4 µM.

With `CCOc1ccc2nc(SC3CC(=O)N(c4ccc(C)cc4)C3=O)sc2c1` (centres undefined) as the molecule, how does the AC50 read?
The AC50 was 15.6 µM.

`O=c1c(Br)c(Br)cnn1-c1ccccc1` was tested. Which AC50 did it give?
The AC50 was 1.82 µM.

How did the AC50 turn out when `Cc1oc(=O)c(NC(=O)c2ccc(Cl)cc2)cc1C(=O)c1ccccc1` was run?
Its AC50 is 32.1 µM.

How did the AC50 turn out when `CCN(CC)S(=O)(=O)c1ccc(-c2ccc(S(=O)(=O)N(CC)CC)cc2)cc1` was run?
The AC50 was 3.81 µM.

`CC(C)(C)NC(=O)NC(=O)CN1CCN(c2ccc(O)cc2)CC1` was tested. Which AC50 did it give?
Its AC50 is 1.9 µM.

Which AC50 does the source give for `Cn1c(COc2ccc(Br)cc2)nnc1SC1CCc2ccccc2C1=O` (centres undefined) here?
The AC50 was 35.2 µM.
